Experimental data as given in the NIST ThermoML archive (doi:10.1021/je020189p).
Where “and” joins values, the source holds several entries; their conditions need not be identical. Identical values can stand only once.

Settings: Crystal

[I][Tb]([I])[I] [terbium triiodide]
Settings	vapor or sublimation pressure
861 K	1.91e-05 kPa
871 K	2.82e-05 kPa
879 K	3.31e-05 kPa
883 K	4.27e-05 kPa
884 K	3.8e-05 kPa and 5.01e-05 kPa
885 K	5.01e-05 kPa
891 K	4.79e-05 kPa
892 K	6.17e-05 kPa
895 K	7.08e-05 kPa
897 K	6.61e-05 kPa and 5.75e-05 kPa
900 K	0.0001 kPa
902 K	9.12e-05 kPa
903 K	7.59e-05 kPa
907 K	0.000126 kPa
909 K	0.000115 kPa and 9.55e-05 kPa
911 K	0.000151 kPa
912 K	0.000132 kPa
913 K	0.000123 kPa
915 K	0.000115 kPa
917 K	0.000174 kPa
920 K	0.000141 kPa
921 K	0.0002 kPa
922 K	0.000186 kPa
926 K	0.000209 kPa
927 K	0.000182 kPa and 0.000251 kPa
928 K	0.000251 kPa
929 K	0.000229 kPa
930 K	0.00024 kPa
931 K	0.000209 kPa
935 K	0.00024 kPa
936 K	0.000339 kPa
937 K	0.000347 kPa
938 K	0.000316 kPa
939 K	0.000339 kPa
940 K	0.000339 kPa and 0.000282 kPa
942 K	0.000676 kPa
944 K	0.000447 kPa
945 K	0.000479 kPa
947 K	0.000407 kPa and 0.000363 kPa
948 K	0.000468 kPa and 0.000427 kPa
951 K	0.00055 kPa
952 K	0.001 kPa
953 K	0.000447 kPa and 0.000603 kPa
955 K	0.000955 kPa
958 K	0.000661 kPa and 0.000631 kPa
959 K	0.000692 kPa and 0.000741 kPa
961 K	0.000776 kPa
963 K	0.000661 kPa
964 K	0.00135 kPa
966 K	0.000891 kPa and 0.000955 kPa
967 K	0.000912 kPa and 0.000977 kPa
971 K	0.00105 kPa and 0.00166 kPa and 0.001 kPa
972 K	0.00191 kPa and 0.0012 kPa
973 K	0.00117 kPa and 0.00115 kPa and 0.000955 kPa
975 K	0.00186 kPa
976 K	0.00135 kPa
977 K	0.00141 kPa
979 K	0.00141 kPa
980 K	0.00148 kPa and 0.00138 kPa
981 K	0.00123 kPa
983 K	0.00151 kPa and 0.0024 kPa
985 K	0.00186 kPa
986 K	0.00182 kPa and 0.0017 kPa
987 K	0.00288 kPa and 0.00191 kPa
988 K	0.00288 kPa and 0.00178 kPa and 0.00155 kPa
990 K	0.00288 kPa
992 K	0.00234 kPa
993 K	0.00219 kPa
994 K	0.00229 kPa and 0.00182 kPa
995 K	0.0024 kPa and 0.00389 kPa
998 K	0.00282 kPa [middle of 4 runs]
1001 K	0.00282 kPa
1002 K	0.0024 kPa
1003 K	0.00288 kPa and 0.00501 kPa
1004 K	0.00479 kPa and 0.00339 kPa
1005 K	0.00479 kPa
1006 K	0.00309 kPa
1008 K	0.00339 kPa and 0.00389 kPa
1009 K	0.00282 kPa and 0.0038 kPa
1012 K	0.00575 kPa and 0.00676 kPa
1013 K	0.00447 kPa
1015 K	0.00437 kPa
1016 K	0.00708 kPa
1017 K	0.00525 kPa
1018 K	0.00501 kPa
1019 K	0.00759 kPa
1020 K	0.00912 kPa
1021 K	0.00617 kPa
1022 K	0.0055 kPa
1026 K	0.00661 kPa
1027 K	0.00977 kPa
1028 K	0.00955 kPa
1029 K	0.00676 kPa and 0.0117 kPa and 0.00692 kPa
1033 K	0.00813 kPa
1036 K	0.0129 kPa
1037 K	0.00891 kPa and 0.0132 kPa
1039 K	0.0162 kPa
1043 K	0.0162 kPa
1044 K	0.0115 kPa
1049 K	0.0195 kPa and 0.0204 kPa and 0.0224 kPa
1050 K	0.0135 kPa
1057 K	0.0245 kPa
1058 K	0.0174 kPa
1059 K	0.0263 kPa and 0.0309 kPa
1064 K	0.0209 kPa and 0.0309 kPa
1066 K	0.0316 kPa and 0.038 kPa
1070 K	0.0263 kPa
1072 K	0.0389 kPa
1077 K	0.0324 kPa
1078 K	0.0457 kPa
